Source: PubChem BioAssay (NCI)
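Growth conditions: 96-well plates. Treatment: test compound, 48 hours, 5 concentrations. Analysis: linear interpolation between bracketing concentrations; unreached endpoints set to highest concentration. Here, GI50 denotes the concentration required for 50% inhibition of growth. TGI marks complete inhibition of growth.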

Assays:
Assay in all cases: NCI-60 cell line screen, 48 h
[1] = tested on: ACHN renal
[2] = tested on: DU-145 prostate
[3] = tested on: CAKI-1 renal
[4] = tested on: UACC-257 melanoma
[5] = tested on: MCF7 breast
[6] = tested on: SF-268 CNS
[7] = tested on: SF-539 CNS
[8] = tested on: SF-295 CNS
[9] = tested on: UO-31 renal
[10] = tested on: HOP-92 NSCLC
[11] = tested on: NCI-H460 lung
[12] = tested on: SK-MEL-5 melanoma
[13] = tested on: NCI-H226 lung
[14] = tested on: NCI/ADR-RES ovarian
[15] = tested on: PC-3 prostate
[16] = tested on: RXF 393 renal
[17] = tested on: SR leukemia
[18] = tested on: LOX IMVI melanoma
[19] = tested on: M14 melanoma
[20] = tested on: SW-620 colon
[21] = tested on: T-47D breast
[22] = tested on: HT29 colon
[23] = tested on: SN12C renal
[24] = tested on: A549 NSCLC
[25] = tested on: HS 578T breast
[26] = tested on: UACC-62 melanoma
[27] = tested on: OVCAR-8 ovarian
[28] = tested on: KM12 colon
[29] = tested on: K-562 leukemia
[30] = tested on: NCI-H522 lung
[31] = tested on: SK-MEL-2 melanoma
[32] = tested on: SK-MEL-28 melanoma
[33] = tested on: RPMI-8226 leukemia
[34] = tested on: IGROV1 ovarian
[35] = tested on: HCT-15 colon
[36] = tested on: U251 CNS
[37] = tested on: A498 renal
[38] = tested on: SNB-75 CNS
[39] = tested on: MDA-MB-435
[40] = tested on: SK-OV-3 ovarian
[41] = tested on: OVCAR-4 ovarian
[42] = tested on: SNB-19 CNS
[43] = tested on: COLO 205 colon
[44] = tested on: BT-549 breast
[45] = tested on: HOP-62 NSCLC
[46] = tested on: HCC-2998 colon
[47] = tested on: HCT-116 colon
[48] = tested on: 786-0 renal
[49] = tested on: CCRF-CEM leukemia
[50] = tested on: EKVX NSCLC
[51] = tested on: HL-60(TB) leukemia
[52] = tested on: MOLT-4 leukemia
[53] = tested on: MALME-3M melanoma
[54] = tested on: NCI-H23 lung
[55] = tested on: MDA-MB-231 breast
[56] = tested on: TK-10 renal
[57] = tested on: OVCAR-3 ovarian
[58] = tested on: OVCAR-5 ovarian

Work on `COC1=C(C)C(=O)N2[C@@H]1[C@H](c1ccccc1)OC21C=CC(=O)C=C1` yielded a GI50 [1] of 0.658 µM, a TGI [1] of 1.36 µM and a GI50 [2] of 3.69 µM. It also gave a TGI [2] of 19.1 µM, a GI50 [3] of 0.804 µM and a TGI [3] of 2.39 µM. The GI50 [4] was 4.97 µM, the TGI [4] was 15.5 µM and the GI50 [5] was 1.07 µM. The TGI [5] was 5.39 µM, the GI50 [6] was 8.89 µM and the TGI [6] was 31.9 µM. The GI50 [7] was 4.73 µM, the TGI [7] was 11.5 µM and the GI50 [8] was 15.5 µM. The TGI [8] was 46.9 µM, the GI50 [9] was 1.31 µM and the TGI [9] was 3.88 µM. For the same molecule, the GI50 [10] was 2.48 µM, the TGI [10] was 7.65 µM and the GI50 [11] was 8.13 µM. It also gave a TGI [11] of 21.8 µM, a GI50 [12] of 5.05 µM and a TGI [12] of 9.94 µM. For the same molecule, the GI50 [13] was 9.79 µM, the TGI [13] was over 31.1 µM and the GI50 [14] was 3.36 µM. It also gave a TGI [14] of over 47.4 µM, a GI50 [15] of 7.81 µM and a TGI [15] of over 32 µM. For the same molecule, the GI50 [16] was 1.42 µM, the TGI [16] was 6.26 µM and the GI50 [17] was 0.673 µM. It also gave a TGI [17] of 15.5 µM, a GI50 [18] of 0.757 µM and a TGI [18] of 2.69 µM. It also gave a GI50 [19] of 4.39 µM, a TGI [19] of 12.5 µM and a GI50 [20] of 0.923 µM. The TGI [20] was 2.78 µM, the GI50 [21] was 1.73 µM and the TGI [21] was 9.99 µM. The GI50 [22] was 1.28 µM, the TGI [22] was 4.28 µM and the GI50 [23] was 3.64 µM. For the same molecule, the TGI [23] was 27.7 µM, the GI50 [24] was 10.8 µM and the TGI [24] was 38.9 µM. For the same molecule, the GI50 [25] was 12.5 µM, the TGI [25] was over 40.9 µM and the GI50 [26] was 1.35 µM. For the same molecule, the TGI [26] was 5.51 µM, the GI50 [27] was 1.1 µM and the TGI [27] was over 36.5 µM. The GI50 [28] was 5.99 µM, the TGI [28] was 12.9 µM and the GI50 [29] was 1.11 µM. The TGI [29] was over 67 µM, the GI50 [30] was 0.555 µM and the TGI [30] was 1.35 µM. It also gave a GI50 [31] of 6.92 µM, a TGI [31] of 19.6 µM and a GI50 [32] of 1.2 µM. It also gave a TGI [32] of 6.68 µM, a GI50 [33] of 1.33 µM and a TGI [33] of 8.44 µM. It also gave a GI50 [34] of 6.83 µM, a TGI [34] of 21.7 µM and a GI50 [35] of 0.697 µM. The TGI [35] was 2.21 µM, the GI50 [36] was 5.61 µM and the TGI [36] was 11 µM. For the same molecule, the GI50 [37] was 27.4 µM, the TGI [37] was over 89.4 µM and the GI50 [38] was 12.1 µM. It also gave a TGI [38] of 50 µM, a GI50 [39] of 1.97 µM and a TGI [39] of 7.32 µM. It also gave a GI50 [40] of over 41.9 µM, a TGI [40] of over 100 µM and a GI50 [41] of 3.51 µM. The TGI [41] was 16.6 µM, the GI50 [42] was 42.8 µM and the TGI [42] was over 100 µM. The GI50 [43] was 2.56 µM, the TGI [43] was 7.81 µM and the GI50 [44] was 2.97 µM. It also gave a TGI [44] of 9.47 µM, a GI50 [45] of 10.8 µM and a TGI [45] of 24.9 µM. It also gave a GI50 [46] of 5.86 µM, a TGI [46] of 10.9 µM and a GI50 [47] of 0.984 µM. It also gave a TGI [47] of 3.81 µM, a GI50 [48] of 2.86 µM and a TGI [48] of 8.22 µM. For the same molecule, the GI50 [49] was 0.925 µM, the TGI [49] was 3.87 µM and the GI50 [50] was 10.7 µM. It also gave a TGI [50] of over 33.8 µM, a GI50 [51] of 0.922 µM and a TGI [51] of 4.57 µM. It also gave a GI50 [52] of 2.23 µM, a TGI [52] of 11 µM and a GI50 [53] of 1.08 µM. It also gave a TGI [53] of 4.32 µM, a GI50 [54] of 4.07 µM and a TGI [54] of 18.5 µM. It also gave a GI50 [55] of 2.77 µM, a TGI [55] of 9.27 µM and a GI50 [56] of 1.41 µM. The TGI [56] was 6.29 µM, the GI50 [57] was 1.09 µM and the TGI [57] was 3.74 µM. It also gave a GI50 [58] of 3.78 µM and a TGI [58] of 11.6 µM.
